Tests used:
SOS1 and KRAS G12C = SOS1 and KRAS G12C (Homo sapiens (Human), UniProt Q07889); experiment: KRAS::SOS1 AlphaScreen binding assay (KRAS G12C); settings: average of at least two measurements
SOS1 and KRAS G12D = SOS1 and KRAS G12D (Homo sapiens (Human), UniProt Q07889); experiment: KRAS::SOS1 AlphaScreen binding assay (KRAS G12D); settings: average of at least two measurements
human hepatocytes = experiment: Metabolic stability in human hepatocytes; settings: 1 μM test compound, 50% human serum, percentage of liver blood flow
CYP3A4 = CYP3A4 (Homo sapiens (Human), UniProt P08684); experiment: Mechanism-based inhibition of CYP3A4 assay (MBI 3A4); type: in vitro ADME; settings: human, human liver microsomes, probe midazolam 15 μM (hydroxy-midazolam formation), midazolam substrate, hydroxy-midazolam formation after 30 min preincubation relative to 0 min, read-out: MBI inhibition % ctrl. [%] with MDZ
CYP3A4, sequence (P08684 whole entry): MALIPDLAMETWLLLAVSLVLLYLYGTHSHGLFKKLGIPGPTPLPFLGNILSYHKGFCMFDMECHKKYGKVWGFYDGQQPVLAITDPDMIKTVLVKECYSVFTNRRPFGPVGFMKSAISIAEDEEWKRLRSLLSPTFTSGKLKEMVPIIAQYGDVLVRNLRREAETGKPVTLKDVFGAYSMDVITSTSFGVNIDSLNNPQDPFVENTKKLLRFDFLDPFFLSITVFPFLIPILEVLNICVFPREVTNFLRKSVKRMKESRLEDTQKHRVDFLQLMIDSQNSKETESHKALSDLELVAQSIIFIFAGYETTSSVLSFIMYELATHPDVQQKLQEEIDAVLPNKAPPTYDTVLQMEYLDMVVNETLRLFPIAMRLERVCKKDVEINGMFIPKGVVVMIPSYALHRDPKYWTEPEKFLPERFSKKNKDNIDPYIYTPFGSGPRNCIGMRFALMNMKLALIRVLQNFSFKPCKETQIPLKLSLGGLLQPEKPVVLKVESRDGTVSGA
How it was run: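 Human liver microsomes (0.2 mg/mL) were preincubated with compound at 0, 5 or 25 μM plus 1 mM NADPH for 0, 10 or 30 min, then diluted 1:10 and incubated 10 min with 15 μM midazolam. Hydroxy-midazolam was measured by LC/MS-MS; readout is formation after 30 min relative to 0 min preincubation (%).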

[1] = system: ERK phosphorylation in NCI-H358 SOS2 KO cells (KRAS G12C); experiment: Erk phosphorylation assay; type: cell-based, human; settings: Homo sapiens, NCI-H358, NCI-H358 SOS2 KO cells, EGF stimulated; average of at least two measurements; read-out: pERK IC50
How it was run: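 NCI-H358 SOS2 KO cells (KRAS G12C) in DMEM/2% FBS were pretreated 50 min with compound, then stimulated with EGF (approx. 8 ng/mL) for 10-15 min. pERK1/2 (Thr202/Tyr204) measured in lysates by AlphaLISA SureFire; IC50 from variable-slope fit, averaged over at least two measurements.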

P450 3A4 = P450 3A4 (Homo sapiens (Human), UniProt P08684); experiment: Cytochrome P450 isoenzyme inhibition assay (P450 3A4, midazolam); type: in vitro ADME; settings: human liver microsomes, Midazolam as substrate; read-out: CYP3A4 inhibition IC50
P450 3A4, sequence (P08684 whole entry): as above
How it was run: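 Midazolam (5 μM) hydroxylation by human liver microsomes (0.1 mg/ml) in 0.1 M TRIS with 5 mM MgCl2, started with 1 mM NADPH. Five compound concentrations in duplicate, e.g. top 50 μM with 1:4 dilutions. Metabolite quantified by LC-MS/MS against internal standard; IC50 from inhibition relative to no-compound control.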

SOS1 and KRAS G12C, sequence (Q07889 564-1049, stated change not applied): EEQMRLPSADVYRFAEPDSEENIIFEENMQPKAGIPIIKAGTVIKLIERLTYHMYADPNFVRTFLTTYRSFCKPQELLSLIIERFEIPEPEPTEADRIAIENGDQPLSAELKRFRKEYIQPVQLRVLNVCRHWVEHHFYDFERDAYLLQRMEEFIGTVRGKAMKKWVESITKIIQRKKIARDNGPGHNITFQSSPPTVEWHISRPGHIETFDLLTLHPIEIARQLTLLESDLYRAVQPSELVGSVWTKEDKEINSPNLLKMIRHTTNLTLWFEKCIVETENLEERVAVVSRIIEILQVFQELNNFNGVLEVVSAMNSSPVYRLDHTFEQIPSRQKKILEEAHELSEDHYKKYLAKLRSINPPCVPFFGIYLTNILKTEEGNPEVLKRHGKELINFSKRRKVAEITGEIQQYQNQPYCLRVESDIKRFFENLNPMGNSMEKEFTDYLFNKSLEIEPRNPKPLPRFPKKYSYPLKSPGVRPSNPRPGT
SOS1 and KRAS G12D, sequence (Q07889 564-1049, stated change not applied): as above

IC50 (SOS1 and KRAS G12C)	IC50 (SOS1 and KRAS G12D)	Hepatic clearance - QH[%] in human hepatocytes (human hepatocytes)	inhibition at 30 min (CYP3A4)	IC50 [1]	IC50 (P450 3A4)	SMILES
42 nM	34 nM	10%	106%	62 nM	> 50000 nM	C[C@@H](NC(=O)c1cc(N2CCC3(CCCN3)CC2)c2ncnn2c1)c1cccc(C(F)(F)F)c1F [Example E34]
57 nM	48 nM	6%	94%	160 nM	> 50000 nM	C[C@@H](NC(=O)c1cc(N2CCC(N(C)C)CC2)c2ncnn2c1)c1cccc(C(F)(F)F)c1F [Example E35]
28 nM	22 nM	10%	96%	144 nM	> 50000 nM	C[C@@H](NC(=O)c1cc(N2CCC3(CCNC3)CC2)c2ncnn2c1)c1cccc(C(F)(F)F)c1F [Example E36]
31 nM	21 nM	25%	90%	152 nM	> 50000 nM	C[C@@H](NC(=O)c1cc(N2CCC3(CCCN3C)CC2)c2ncnn2c1)c1cccc(C(F)(F)F)c1F [Example E37]
53 nM	54 nM	43%	75%	251 nM	> 50000 nM	C[C@@H](O)CNC1CCN(c2cc(C(=O)N[C@H](C)c3cccc(C(F)(F)F)c3F)cn3ncnc23)CC1 [Example E39]
50 nM	53 nM	22%	75%	277 nM	> 50000 nM	C[C@H](O)CNC1CCN(c2cc(C(=O)N[C@H](C)c3cccc(C(F)(F)F)c3F)cn3ncnc23)CC1 [Example E40]
63 nM	42 nM	16%	95%	58 nM	> 50000 nM	C[C@@H](NC(=O)c1cc(N2CCC(N3CCC[C@H](O)C3)CC2)c2ncnn2c1)c1cccc(C(F)(F)F)c1F [Example E44]
33 nM	30 nM	<4%	97%	139 nM	> 50000 nM	C[C@@H](NC(=O)c1cc(N2CCC3(CCCCN3)CC2)c2ncnn2c1)c1cccc(C(F)(F)F)c1F [Example E45]
34 nM	31 nM	9%	98%	162 nM	> 50000 nM	C[C@@H](NC(=O)c1cc(N2CCC3(CCCCN3C)CC2)c2ncnn2c1)c1cccc(C(F)(F)F)c1F [Example E46]
69 nM	60 nM	27%	92%	82 nM	> 50000 nM	C[C@@H](NC(=O)c1cc(N2CCC(N3CCCC3)CC2)c2ncnn2c1)c1cccc(C(F)(F)F)c1F [Example E48]
49 nM	42 nM	15%	83%	220 nM	> 50000 nM	C[C@@H](NC(=O)c1cc(N2CCC(NCC(C)(C)O)CC2)c2ncnn2c1)c1cccc(C(F)(F)F)c1F [Example E50]
39 nM	31 nM	12%	85%	186 nM	> 50000 nM	C[C@H](CO)NC1CCN(c2cc(C(=O)N[C@H](C)c3cccc(C(F)(F)F)c3F)cn3ncnc23)CC1 [Example E54]
69 nM	54 nM	<4%	83%	397 nM	> 50000 nM	C[C@@H](NC(=O)c1cc(N2CCC(N(C)CCO)CC2)c2ncnn2c1)c1cccc(C(F)(F)F)c1F [Example E55]
65 nM	52 nM	15%	106%	149 nM	> 50000 nM	C[C@@H](NC(=O)c1cc(N2CCC(N3CC[C@@H](O)C3)CC2)c2ncnn2c1)c1cccc(C(F)(F)F)c1F [Example E57]
32 nM	32 nM	15%	96%	122 nM	> 50000 nM	C[C@@H](NC(=O)c1cc([C@H]2CC[C@H](N3CCC[C@@H](O)C3)CC2)c2ncnn2c1)c1cccc(C(F)F)c1F [Example E58]
42 nM	41 nM	15%	99%	166 nM	> 50000 nM	C[C@@H](NC(=O)c1cc([C@H]2CC[C@H](N3CC[C@](C)(O)C3)CC2)c2ncnn2c1)c1cccc(C(F)F)c1F [Example E59]
21 nM	20 nM	26%	90%	290 nM	> 50000 nM	C[C@@H](NC(=O)c1cc([C@H]2CC[C@H](N3C[C@H](F)C[C@@H]3CO)CC2)c2ncnn2c1)c1cccc(C(F)F)c1F [Example E60]
22 nM	15 nM	9%	98%	315 nM	> 50000 nM	C[C@@H]1C[C@@H](O)CN1[C@H]1CC[C@H](c2cc(C(=O)N[C@H](C)c3cccc(C(F)F)c3F)cn3ncnc23)CC1 [Example E62]
31 nM	27 nM	23%	94%	89 nM	> 50000 nM	C[C@@H](NC(=O)c1cc(C2=CCC(N3CCC[C@H](O)C3)CC2)c2ncnn2c1)c1cccc(C(F)F)c1F (stereo partly drawn) [Example E63]
90 nM	93 nM	38%	102%	165 nM	> 50000 nM	C[C@@H](NC(=O)c1cc([C@]2(O)CC[C@@H](N3CC[C@@H](F)C3)CC2)c2ncnn2c1)c1cccc(C(F)F)c1F [Example E65]
74 nM	79 nM	32%	81%	152 nM	> 50000 nM	C[C@@H](NC(=O)c1cc([C@]2(O)CC[C@@H](N3CC[C@H](F)C3)CC2)c2ncnn2c1)c1cccc(C(F)F)c1F [Example E66]
33 nM	33 nM	10%	95%	46 nM	> 50000 nM	C[C@@H](NC(=O)c1cc([C@H]2CC[C@H](N3CCC[C@H](O)C3)CC2)c2ncnn2c1)c1cccc(C(F)(F)F)c1F [Example E67]
36 nM	27 nM	12%	91%	116 nM	> 50000 nM	C[C@@H](NC(=O)c1cc([C@H]2CC[C@H](N3CCC[C@@H](O)C3)CC2)c2ncnn2c1)c1cccc(C(F)(F)F)c1F [Example E68]
28 nM	23 nM	<4%	85%	218 nM	> 50000 nM	C[C@@H](NC(=O)c1cc([C@H]2CC[C@H](N3CC[C@H](O)C3)CC2)c2ncnn2c1)c1cccc(C(F)(F)F)c1F [Example E69]
79 nM	79 nM	7%	94%	196 nM	> 50000 nM	C[C@@H](NC(=O)c1cc([C@]2(O)CC[C@@H](N3CC[C@H](F)C3)CC2)c2ncnn2c1)c1cccc(C(F)(F)F)c1F [Example E71]
33 nM	32 nM	21%	98%	92 nM	> 50000 nM	C[C@@H](NC(=O)c1cc(N2CCC(N3CCC[C@H]3CO)CC2)c2ncnn2c1)c1cccc(C(C)(F)F)c1F [Example E72]
64 nM	64 nM	24%	103%	136 nM	> 50000 nM	C[C@@H](NC(=O)c1cc(N2CCC(N3CC[C@@H](CO)C3)CC2)c2ncnn2c1)c1cccc(C(C)(F)F)c1F [Example E73]
26 nM	21 nM	8%	89%	206 nM	> 50000 nM	C[C@@H](NC(=O)c1cc(N2CCC3(CCCN3C)CC2)c2ncnn2c1)c1cccc(C(C)(F)F)c1F [Example E74]

— patent publication US20250313560A1, “Novel bicyclic benzylamido pyridine derivatives as SOS1 inhibitors” (Boehringer Ingelheim International GmbH, priority 2024, published 2025)
